{"source": "patent US8847018B2", "about": "“Plants tolerant to HPPD inhibitor herbicides” (Bayer CropScience AG, priority 2009, dated 2014)", "key": {"[1]": {"system": "Rhodococcus HPPD SEQ ID No. 5 (FMP22e)", "experiment": "biochemical", "assay_type": "biochemical, Rhodococcus sp. (strain RHA1), isolate ro03041", "conditions": "SEQ ID No. 5"}, "[2]": {"system": "tobacco plants containing FMP23e (HPPD FMP23)", "experiment": "Glasshouse trial, herbicidal damage on T1 tobacco", "assay_type": "in vivo, Nicotiana tabacum", "conditions": "7 DAT, 100 g AI/ha spray; FMP23e line 188, single T1 plants", "procedure": "T0 Tobacco plants containing either the gene from Arabidopsis coding for HPPD or the gene FMP22e from Rhodococcus sp. (strain RHA1), isolate ro03041 coding for FMP22 HPPD, or the gene FMP23e from Rhodococcus sp. (strain RHA1), isolate ro02040 mentioned above (Example 3), were transferred to the glasshouse (28/20° C.), to develop further and produce seeds. Those seeds were harvested and put on soil (ED73 mixed with sand and osmocote Pro) to germinate in the glasshouse (28/20° C.). Three to four weeks later, plantlets were transferred to single pots containing the soil mentioned above. Two weeks later, plants of a size 4-6 cm diameter were sprayed with either • tembotrione at 100 gAl/ha prepared from a WP20 (wettable powder 20%) formulation supplemented with ammonium sulfate and methyl ester raps oil, or • isoxaflutole at 100 gAl/ha prepared from a WP20 formulation supplemented with ammonium sulfate and methyl ester raps oil, or • bicyclopyrone at 100 gAl/ha prepared from a WP20 formulation supplemented with ammonium sulfate and methyl ester raps oil, or • “blind formulation” made from a WP20 formulation without active ingredient (Al) supplemented with ammonium sulfate and methyl ester raps oil, and were then transferred to a growth chamber with adequate light conditions (20000 Lux)."}, "[3]": {"system": "T0 tobacco plants containing FMP22t", "experiment": "Response of T0 tobacco plants to tembotrione", "assay_type": "in vivo, Nicotiana tabacum", "conditions": "100 g AI/ha, two weeks after treatment", "procedure": "(§1) As an example, rooted plants containing the T-DNA PromCaMV35S-OTP-HIS6-FMP22t-TerCaMV35S or containing the T-DNA PromCaMV35S-OTP-HIS6-FMP23t-TerCaMV35S, are transferred to the greenhouse under standard growth conditions. Following a period of acclimation of two weeks, the T0 plants are treated with a mixture containing 100 g tembotrione/ha prepared from a WP20 (wettable powder 20%) formulation supplemented with ammonium sulfate and methyl ester raps oil.\n(§2) Two weeks after the treatment, the symptoms due to the application of the herbicides are evaluated. The plants are classified in four categories. The treated plants evaluated as “0” are looking like the untreated tobacco plants. The plants evaluated as “1” display temporarily light bleaching phenotype due to the application of the herbicides. The plants evaluated as “2” display permanent light to strong bleaching symptoms. Finally the plants evalutated as “3” are looking like wild type tobacco plants submitted to the same treatment."}, "[4]": {"system": "T0 tobacco plants containing FMP23t", "experiment": "Response of T0 tobacco plants to tembotrione", "assay_type": "in vivo, Nicotiana tabacum", "conditions": "100 g AI/ha, two weeks after treatment", "procedure": "as §1, §2"}, "[5]": {"system": "rice shoots containing FMP22e", "experiment": "Bleaching of rice shoots on MS/2 with tembotrione", "assay_type": "cell-based", "conditions": "2 weeks", "procedure": "(§3) Rice transformation is achieved using methods well known in the art. Briefly, the Agrobacterium tumefaciens mediated transformation of rice was performed using immature embryos, from the restorer line 6G4317. Briefly, panicles from donor plants were harvested 8-12 days after pollination. The lemma of the immature seed was removed. Seeds were thereafter sterilized using a NaOCl based solution and Tween. The seeds were preinduced with […]. Agrobacterium tumefaciens cells are then co-cultivated with the preinduced seeds in presence of acetosyringone for 4 days at 24° C. in the dark. Thereafter, coleoptile from embryos are removed and washed, then put on a media supplemented with phosphinothricin for 3 weeks at 28° C. under a photoperiod rhythm of 16 hours. Then the growing calli were cut off from the embryos, and transferred to fresh media containing triacillin, phosphinothricin, L-proline and copper (II) sulfate.\n(§4) For each callusline and per Tembotrione concentration, 3 shoots, and randomly isolated from different callus pieces, were transferred to MS/2 with Tembotrione. As a general rule, transfer of the shoots from regeneration medium to MS/2 occurred 9 weeks after calli had been put on regeneration medium.\n(§5) Cultures were incubated at 26.5° C. (16 hrs. photoperiod) and evaluation of symptoms occurred 2 weeks later.\n(§6) New developing leaves of the shoots transferred have been scored on the basis of bleaching and categorized in 3 groups:\n(§7) Within the category ‘intermediate bleaching’ a distinction has been made between shoots having new leaves showing only very little bleaching symptoms and thus tending to green leaves, and shoots with new leaves almost completely bleached."}, "[6]": {"system": "rice shoots containing FMP23e", "experiment": "Bleaching of rice shoots on MS/2 with tembotrione", "assay_type": "cell-based", "conditions": "2 weeks", "procedure": "as §3, §4, §5, §6, §7"}, "[7]": {"system": "rice plants containing FMP22e", "experiment": "Response to tembotrione in glasshouse trials, T0 rice", "assay_type": "in vivo", "conditions": "100 g AI/ha, 7 DAT", "procedure": "(§8) T0 rooted plantlets (either selected on phosphinothricin alone or on phosphinothricin supplemented with tembotrione) were transferred to soil in the glasshouse. Following an acclimation period, sufficiently grown plants were treated with the different HPPD inhibitor herbicides. As an example, T0 plants were sprayed with tembotrione of formulation type WP20 100 g Al/ha supplemented with ammonium sulfate and methyl ester raps oil. Seven days after the spray application, the symptoms due to the application of the herbicide were evaluated and compared the symptoms observed on wild type plants submitted to the same treatment.\n(§9) The plants were classified in three categories based on the phenotype developed in response to the herbicide seven days after the treatment."}, "[8]": {"system": "rice plants containing FMP23e", "experiment": "Response to tembotrione in glasshouse trials, T0 rice", "assay_type": "in vivo", "conditions": "100 g AI/ha, 7 DAT", "procedure": "as §8, §9"}}, "note": "“And” between values parts separate entries of the source, which are not always exact repeats. Equal values may be shown once."}
{"smiles": "CS(=O)(=O)c1ccc(C(=O)C2C(=O)CCCC2=O)c(Cl)c1COCC(F)(F)F", "note": "[Tembotrione, 2-[2-chloro-4-(methylsulfonyl)-3-[(2,2,2,-tri-fluoroethoxy)methyl]benzoyl]-1,3-cyclo-hexanedione]", "values": [{"measurement": "pI50", "setting": "[1]; 2 mM HPP, 3 minutes incubation", "value": 5.3}, {"measurement": "percentage of inhibition compared to activity in absence of the inhibitor", "setting": "[1]; 5.0 × 10^−6 M inhibitor", "value": 36, "unit": "%"}, {"measurement": "% injury", "setting": "[2]", "value": "0% and 5%"}, {"measurement": "number of plants in category 0 (looking like untreated tobacco plants)", "setting": "[3]", "value": 4}, {"measurement": "number of plants in category 1 (temporarily light bleaching)", "setting": "[3]", "value": 2}, {"measurement": "number of plants in category 2 (permanent light to strong bleaching)", "setting": "[3]", "value": 5}, {"measurement": "number of plants in category 3 (like treated wild type tobacco plants)", "setting": "[3]", "value": 3}, {"measurement": "number of plants in category 0 (looking like untreated tobacco plants)", "setting": "[4]", "value": 5}, {"measurement": "number of plants in category 3 (like treated wild type tobacco plants)", "setting": "[4]", "value": 4}, {"measurement": "N° of shoots completely bleached", "setting": "[5]; 1 μM", "value": 14}, {"measurement": "N° of shoots with intermediate bleaching", "setting": "[5]; 1 μM", "value": 9}, {"measurement": "N° of shoots without bleaching", "setting": "[5]; 1 μM", "value": 35}, {"measurement": "N° of shoots completely bleached", "setting": "[5]; 5 μM", "value": 16}, {"measurement": "N° of shoots with intermediate bleaching", "setting": "[5]; 5 μM", "value": 38}, {"measurement": "N° of shoots without bleaching", "setting": "[5]; 5 μM", "value": 6}, {"measurement": "N° of shoots completely bleached", "setting": "[6]; 1 μM", "value": 14}, {"measurement": "N° of shoots with intermediate bleaching", "setting": "[6]; 1 μM", "value": 5}, {"measurement": "N° of shoots without bleaching", "setting": "[6]; 1 μM", "value": 39}, {"measurement": "N° of shoots completely bleached", "setting": "[6]; 5 μM", "value": 25}, {"measurement": "N° of shoots with intermediate bleaching", "setting": "[6]; 5 μM", "value": 20}, {"measurement": "Class II (number of plants, temporary light injuries, injury: 10-40%)", "setting": "[7]", "value": 19}, {"measurement": "Class II (number of plants, temporary light injuries, injury: 10-40%)", "setting": "[8]", "value": 10}, {"measurement": "Class III (number of plants, strong injuries, injury: 41-100%)", "setting": "[8]", "value": 7}]}
